Reference: patent publication US20250114338A1, “TETRAHYDRO-PYRIDO[3,4-b]INDOLE ESTROGEN RECEPTOR MODULATORS AND USES THEREOF” (Genentech, Inc., priority 2014, published 2025)

Tested on: ER-alpha MCF7
Experiment: ER-alpha MCF7 HCS EC50; stated as measured by in vitro cell proliferation assays of Examples 902 and 903
Assay type: cell-based
Conditions: Homo sapiens, MCF7, MCF7 cells; Table 2
Summary of the method: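 MCF7 cells seeded 1000-2000 cells/well for 16 h, then treated with nine-point 1:2 DMSO dilution series in quadruplicate at 37 °C, 5% CO2 for 4 days. Viable cells quantified by CellTiter-Glo ATP luminescence; EC50 calculated. Controls: fulvestrant at final 100 nM, DMSO 0.2% v/v.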

EC50 [pM] | SMILES
6000 | CC(CN1[C@H](c2c(F)cc(OC3CN(CCCF)C3)cc2F)c2[nH]c3ccccc3c2C[C@H]1C)S(C)(=O)=O (stereo partly drawn) [Example 309, (1R,3R)-1-(2,6-difluoro-4-((1-(3-fluoropropyl)azetidin-3-yl)oxy)phenyl)-3-methyl-2-(2-(methylsulfonyl)propyl)-2,3,4,9-tetrahydro-1H-pyrido[3,4-b]indole]
708 | C[C@@H]1Cc2c([nH]c3ccccc23)[C@@H](c2ccc(NC3CN(CCCF)C3)cc2)N1S(C)(=O)=O [Example 310, 1-(3-fluoropropyl)-N-[4-[(1R,3R)-3-methyl-2-methylsulfonyl-1,3,4,9-tetrahydropyrido[3,4-b]indol-1-yl]phenyl]azetidin-3-amine]
248 | C[C@@H]1Cc2c([nH]c3ccccc23)[C@@H](c2c(F)cc(NC3CN(CCCF)C3)cc2F)N1S(C)(=O)=O [Example 311, N-[3,5-difluoro-4-[(1R,3R)-3-methyl-2-methylsulfonyl-1,3,4,9-tetrahydropyrido[3,4-b]indol-1-yl]phenyl]-1-(3-fluoropropyl)azetidin-3-amine]
2000 | C=CS(=O)(=O)N1[C@H](c2ccc(OCCN3CC(CF)C3)cc2)c2[nH]c3ccccc3c2C[C@H]1C [Example 312, (1R,3R)-1-[4-[2-[3-(fluoromethyl)azetidin-1-yl]ethoxy]phenyl]-3-methyl-2-vinylsulfonyl-1,3,4,9-tetrahydropyrido[3,4-b]indole]
1000 | CNS(=O)(=O)N1[C@H](c2ccc(OCCN3CC(CF)C3)cc2)c2[nH]c3ccccc3c2C[C@H]1C [Example 313, (1R,3R)-1-[4-[2-[3-(fluoromethyl)azetidin-1-yl]ethoxy]phenyl]-N,3-dimethyl-1,3,4,9-tetrahydropyrido[3,4-b]indole-2-sulfonamide]
9000 | C[C@@H]1Cc2c([nH]c3ccccc23)[C@H](c2ccc(NC3CN(CCCF)C3)cc2)N1S(C)(=O)=O [Example 314, 1-(3-fluoropropyl)-N-[4-[(1S,3R)-3-methyl-2-methylsulfonyl-1,3,4,9-tetrahydropyrido[3,4-b]indol-1-yl]phenyl]azetidin-3-amine]
2000 | C[C@@H]1Cc2c([nH]c3ccccc23)[C@H](c2c(F)cc(NC3CN(CCCF)C3)cc2F)N1S(C)(=O)=O [Example 315, N-[3,5-difluoro-4-[(1S,3R)-3-methyl-2-methylsulfonyl-1,3,4,9-tetrahydropyrido[3,4-b]indol-1-yl]phenyl]-1-(3-fluoropropyl)azetidin-3-amine]
72.4 | C[C@@H]1Cc2c([nH]c3ccccc23)[C@@H](c2c(F)cc(OC3CN(CCCF)C3)cc2F)N1CC(C)(C)C#N [Example 316, 3-[(1R,3R)-1-[2,6-difluoro-4-[1-(3-fluoropropyl)azetidin-3-yl]oxy-phenyl]-3-methyl-1,3,4,9-tetrahydropyrido[3,4-b]indol-2-yl]-2,2-dimethyl-propanenitrile]
181 | C[C@@H]1Cc2c([nH]c3ccccc23)[C@@H](c2c(F)cc(OC3CN(CC=C(F)F)C3)cc2F)N1CC(C)(C)F [Example 317, (1R,3R)-1-[4-[1-(3,3-difluoroallyl)azetidin-3-yl]oxy-2,6-difluoro-phenyl]-2-(2-fluoro-2-methyl-propyl)-3-methyl-1,3,4,9-tetrahydropyrido[3,4-b]indole]

Continued, compound first:

SMILES | EC50 [pM]
C[C@@H]1Cc2c([nH]c3ccccc23)[C@@H](c2c(F)cc(OCCN3CC(CF)C3)cc2F)N1C[C@H](C)C(=O)O [Example 299, (S)-3-((1R,3R)-1-(2,6-difluoro-4-(2-(3-(fluoromethyl)azetidin-1-yl)ethoxy)phenyl)-3-methyl-1,3,4,9-tetrahydro-2H-pyrido[3,4-b]indol-2-yl)-2-methylpropanoic acid] | 3000
C[C@H](CN1[C@H](c2c(F)cc(OCCN3CC(CF)C3)cc2F)c2[nH]c3ccccc3c2C[C@H]1C)C(=O)O [Example 300, (R)-3-((1R,3R)-1-(2,6-difluoro-4-(2-(3-(fluoromethyl)azetidin-1-yl)ethoxy)phenyl)-3-methyl-1,3,4,9-tetrahydro-2H-pyrido[3,4-b]indol-2-yl)-2-methylpropanoic acid] | 1000
CC(C)(F)CN1[C@H](CF)Cc2c([nH]c3ccccc23)[C@H]1c1c(F)cc(OC2CN(CCCF)C2)cc1F [Example 301, (1R,3S)-1-(2,6-difluoro-4-((1-(3-fluoropropyl)azetidin-3-yl)oxy)phenyl)-2-(2-fluoro-2-methylpropyl)-3-(fluoromethyl)-2,3,4,9-tetrahydro-1H-pyrido[3,4-b]indole] | 88.1
C[C@@H]1Cc2c([nH]c3ccccc23)[C@@H](c2c(F)cc(OC3CN(CCCF)C3)cc2F)N1CC(F)(F)CO [Example 302, 3-((1R,3R)-1-(2,6-difluoro-4-((1-(3-fluoropropyl)azetidin-3-yl)oxy)phenyl)-3-methyl-3,4-dihydro-1H-pyrido[3,4-b]indol-2(9H)-yl)-2,2-difluoropropan-1-ol] | 120
C[C@@H]1Cc2c([nH]c3ccccc23)[C@@H](c2c(F)cc(OC3CN(CCCF)C3)cc2F)N1CC(F)F [Example 303, (1R,3R)-2-(2,2-difluoroethyl)-1-[2,6-difluoro-4-[1-(3-fluoropropyl)azetidin-3-yl]oxy-phenyl]-3-methyl-1,3,4,9-tetrahydropyrido[3,4-b]indole] | 48.2
C[C@@H]1Cc2c([nH]c3ccccc23)[C@@H](c2c(F)cc(NC3CN(CCCF)C3)cc2F)N1CC(F)(F)F [Example 304, N-(3,5-difluoro-4-((1R,3R)-3-methyl-2-(2,2,2-trifluoroethyl)-2,3,4,9-tetrahydro-1H-pyrido[3,4-b]indol-1-yl)phenyl)-1-(3-fluoropropyl)azetidin-3-amine] | 224
C[C@@H]1Cc2c([nH]c3ccccc23)[C@@H](c2c(F)cc(OCCN3CC(CF)C3)cc2F)N1CC(F)F [Example 305, (1R,3R)-2-(2,2-difluoroethyl)-1-[2,6-difluoro-4-[2-[3-(fluoromethyl)azetidin-1-yl]ethoxy]phenyl]-3-methyl-1,3,4,9-tetrahydropyrido[3,4-b]indole] | 216
C[C@@H]1Cc2c([nH]c3ccccc23)[C@H](c2c(F)cc(OCCN3CC(CF)C3)cc2F)N1CC(F)F [Example 306, (1S,3R)-2-(2,2-difluoroethyl)-1-[2,6-difluoro-4-[2-[3-(fluoromethyl)azetidin-1-yl]ethoxy]phenyl]-3-methyl-1,3,4,9-tetrahydropyrido[3,4-b]indole] | 3000
C[C@@H]1Cc2c([nH]c3ccccc23)[C@@H](c2c(F)cc(OC3CN(C4CC(F)(F)C4)C3)cc2F)N1CC(C)(C)F [Example 307, (1R,3R)-1-[4-[1-(3,3-difluorocyclobutyl)azetidin-3-yl]oxy-2,6-difluoro-phenyl]-2-(2-fluoro-2-methyl-propyl)-3-methyl-1,3,4,9-tetrahydropyrido[3,4-b]indole] | 193
C[C@@H]1Cc2c([nH]c3ccccc23)[C@@H](c2c(F)cc(OC3CN(C/C=C/F)C3)cc2F)N1CC(C)(C)F [Example 308, (1R,3R)-1-[2,6-difluoro-4-[1-[(E)-3-fluoroallyl]azetidin-3-yl]oxy-phenyl]-2-(2-fluoro-2-methyl-propyl)-3-methyl-1,3,4,9-tetrahydropyrido[3,4-b]indole] | 127
